Experimental data reported in patent US6586460B1, “Heteroarotinoids containing urea or thiourea linker” (The Board of Regents for Oklahoma State University, priority 2001, dated 2003).

Key:
[1] = tested on: OVCAR-3 cells; assay: In vivo tumor xenograph; parameters: species or system athymic nu/nu mice; details: 10 mg/kg/day p.o.; for tumor growth (average tumor volume, FIG. 1): 5 days/week, beginning 35 days after implantation; for sizes of the tumors compared with control group treated with sesame oil alone: after 15 days of treatment, t-test P<0.05
Experimental: Thirty female athymic nu/nu mice (Charles Rivers Laboratories, Wilmington, Mass.) were housed in a laminar flow room under sterile conditions at 83-85° F. The mice were quarantined for one week prior to the beginning of the study and were allowed access to autoclaved food (Purina 5001 mouse/rat sterilized diet, St. Louis, Mo.) and water ad libitum. Then OVCAR-3 cells in log phase growth were harvested by trypsinization, resuspended in RPMI culture medium, and centrifuged at 3000 rpm for 10 min. The pellets were then resuspended in RPMI culture medium at a concentration of 7×10^6 cells/mL before implantation into mice. Animals were injected with 3.5×10^6 cells into right scapular region with a 24-gauge needle/1 mL tuberculin syringe (Becton Dickinson, Rutherford, N.J.). Twenty four hours after tumor implantation, animals were randomized into four treatment groups of 5 animals each. Retinoids were administered daily p.o. beginning 35 days after tumor implantation with a 20-gauge intragastric feeding tube (Popper & Sons, New Hyde Park, N.Y.), 5 days/week, at doses of 10 mg/kg/day in 0.1 mL of super refined sesame oil (Corda, Inc., Parisppany, N.J.). Tumors were measured with calipers weekly, and tumor volumes were calculated using the formula: volume=length×width×heigth. Animal weights and clinical signs of overall health status and cutaneous toxicities were recorded weekly. Agents 11 and 13 were evaluated against the 4-HPR standard. FIG. 1 illustrates the overall changes in tumor volumes found in the mice in these experiments. […] The animals were monitored daily for signs of toxicity, such as skin eczema and bone fractures, but none were observed. This is added evidence that these heteroarotinoids are strong candidates for cancer chemotherapy.

[2] = Liver toxicity (plasma ALT activity, liver sections); type: in vivo; details: 10 mg/kg/day p.o.; for liver toxicity (ALT activities, liver sections assessed by pathologist): mice
Description: Toxic compounds can induce livers to release enzymes called serum transaminases, such as alanine aminotransferase (ALT). The assay for ALT is the most universally accepted clinical laboratory marker used to evaluate hepatic toxicity induced by pharmaceuticals [See “Serum Transferase Elevations as Indicators or Hepatic Injury Following the Administration of Drugs”, Reg. Tox. Pharm., volume 27, 1998, pp 119-130, by D. E. Amacher]. At the end of the treatment period, blood was drawn from each animal. Plasma was separated by centrifugation and stored at −70° C. The activity of ALT was determined in aliquots of plasma by standard spectrophotometric enzymatic techniques which were based upon the reduction of pyruvate by lactate dehydrogenase [See “Aged Mice are Resistant to the Hepatotoxic Effects of Endotoxin and Galactosamine” in Exp. Mol. Pathology, volume 59, 1993, pp 27-37]. The method measures the disappearance of NADH from time of incubation at 37° C. The activities have been expressed in μm/Liter/min (Table VI). Two different amounts of plasma were utilized in each assay to assure the measurement of the maximum rate.
There were no statistically significant differences between the ALT activities in the different treatment groups (Table VI, t-test: P>0.05). All numbers were in the normal range (63 to 307 μm/Liter/Min) of ALT values for the species of mouse utilized. All liver sections were assessed by an experienced pathologist in a blinded manner. The degree of necrosis was very mild in all animals.

[3] = Monitoring of xenograph mice for signs of toxicity; type: in vivo; details: 10 mg/kg/day (MTD for t-RA)
[4] = tested on: SW962 vulvar carcinoma cultures; assay: Apoptosis assay, Annexin-V-Flous/propidium iodide flow cytometry; type: cell-based
Description: Optimal chemotherapeutic agents will selectively kill tumor cells by inducing a natural form of cell death which is called “apoptosis”. Toxic agents kill both normal and tumor cells via a nonspecific process known as “necrosis”. To differentiate between apoptosis and necrosis in heteroarotinoid-treated cultures, a flow cytometric assay was employed. Treated cultures were stained with Annexin-V-Flous and propidium iodide, and the intensities of the stains are quantitated with Flow Cytometry. The Annexin-V-Flous binds to phosphatidyl serine on the exterior of apoptosing cells. This assay is specific for apoptosing cells because phosphatidyl serine is normally located on the inner membrane of the cells, a situation whereby the serine derivative cannot be bound by Annexin. However, during apoptosis, phosphatidyl serine is translocated to the outer membrane. The Flous moiety emits a signal that can be detected and quantitated by Flow Cytometry. In contrast, propidium iodide is taken up by necrotic cells that have lost membrane integrity. In this study, t-RA was used as a control for the non-apoptotic retinoids, and 4-HPR was used as a control for the apoptotic retinoids.

[5] = tested on: RARE reporter in the SW962 vulvar carcinoma cell line; assay: RARE reporter transactivation through endogenous receptors; type: cell-based
Experimental: Both heteroarotinoids 11 and 13 resemble 4-HPR in that all are potent inducers of apoptosis. Since 4-HPR acts through a receptor-independent mechanism, agent 11 was evaluated for ability to transactivate a RARE reporter through endogenous receptors in the SW962 vulvar carcinoma cell line. […] Nelson, S. Subramanian, G. M. Weerasekare, J. B. Gale, M. K. Patterson, Jr., B. Wang, W. Wang, S. Lu, T. C. Rowland, P. DiSivestro, C. Lindamood, D. L. Hill, and K. D. Berlin]. No induction of the retinoid receptors was observed although 9-cis-RA casued a 4 to 10 fold induction of RARE-driven transcription in the same experiment with the SW962 cell line.

[6] = tested on: retinoic acid receptors; assay: CV-1 co-transfection assay; type: cell-based

SMILES: CCOC(=O)c1ccc(NC(=O)Nc2ccc3c(c2)C(C)(C)CC(C)(C)S3)cc1 [heteroarotinoid 13]
- tumor growth (average tumor volume, FIG. 1) [1]: inhibited tumor growth
- sizes of the tumors compared with control group treated with sesame oil alone [1]: significantly smaller
- liver toxicity (ALT activities, liver sections assessed by pathologist) [2]: do not appear to induce significant liver toxicity
- toxicity to the skin, bones, or liver [3]: did not cause toxicity

SMILES: CC1(C)CC(C)(C)c2cc(NC(=S)Nc3ccc([N+](=O)[O-])cc3)ccc2S1 [heteroarotinoid 11]
- Percentage of induction of apoptosis in SW962 vulvar carcinoma cultures ([4]; Days 0): 3%
- Percentage of induction of apoptosis in SW962 vulvar carcinoma cultures ([4]; Days 1): 6.11%
- Percentage of induction of apoptosis in SW962 vulvar carcinoma cultures ([4]; Days 2): 11.42%
- Percentage of induction of apoptosis in SW962 vulvar carcinoma cultures ([4]; Days 3): 39.06%
- Percentage of induction of apoptosis in SW962 vulvar carcinoma cultures ([4]; Days 4): 48.79%
- Percentage of induction of apoptosis in SW962 vulvar carcinoma cultures ([4]; Days 7): 47.5%
- apoptosis in the SW962 vulvar cell, comparison in words ([4]; Table IV): superior to the clinically used agent 4-HPR
- tumor growth (average tumor volume, FIG. 1) [1]: inhibited tumor growth
- sizes of the tumors compared with control group treated with sesame oil alone [1]: significantly smaller
- liver toxicity (ALT activities, liver sections assessed by pathologist) [2]: do not appear to induce significant liver toxicity
- ALT ACTIVITY ([2]; plasma of mice at end of treatment period): 118.5 ± 153.4 μm/Liter/Min
- induction of RARE-driven transcription [5]: No induction
- transactivation of each of the retinoic acid receptors [6]: No transactivation
- toxicity to the skin, bones, or liver [3]: did not cause toxicity
